# Reference: patent US6737383B1, “Herbicidal oxadiazolidines” (priority 1999, dated 2004)
# Key:
# [1] = tested on: blackgrass; experiment: Test B pre/postemergence blackgrass; format: in vivo, Alopecurus myosuroides
# Procedure, shortened: (§1)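 Herbicidal effect was estimated by eye on a ten-point control scale after plants spent twelve to sixteen days in a greenhouse following soil or foliar treatment. Foliar sprays targeted plants at one to four leaves; all doses were formulated in a non-phytotoxic solvent with surfactant.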
# [2] = tested on: rice; experiment: Test B flood test rice; format: in vivo, Oryza sativa
# Procedure, shortened: (§2)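 Each value is a visual injury score relative to controls, with 10 meaning complete control and 0 no effect. Evaluation took place twelve to sixteen days after the 2-leaf-stage plants were treated and kept in the greenhouse.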
# [3] = tested on: morningglory; experiment: Test B pre/postemergence morningglory; format: in vivo, Ipomoea hederacea
# Procedure, shortened: as §1
# [4] = tested on: cocklebur; experiment: Test B pre/postemergence cocklebur; format: in vivo, Xanthium strumarium
# Procedure, shortened: as §1
# [5] = tested on: bedstraw; experiment: Test B pre/postemergence bedstraw; format: in vivo, Galium aparine
# Procedure, shortened: as §1
# [6] = tested on: sugar beet; experiment: Test B pre/postemergence sugar beet; format: in vivo, Beta vulgaris
# Procedure, shortened: as §1
# [7] = tested on: purple nutsedge; experiment: Test B pre/postemergence purple nutsedge; format: in vivo, Cyperus rotundus
# Procedure, shortened: as §1
# [8] = tested on: surinam grass; experiment: Test B pre/postemergence surinam grass; format: in vivo, Brachiaria decumbens
# Procedure, shortened: as §1
# [9] = tested on: duck salad; experiment: Test B flood test duck salad; format: in vivo, Heteranthera limosa
# Procedure, shortened: as §2
# [10] = tested on: pigweed; experiment: Test B pre/postemergence pigweed; format: in vivo, Amaranthus retroflexus
# Procedure, shortened: as §1
# [11] = tested on: corn; experiment: Test B pre/postemergence corn; format: in vivo, Zea mays
# Procedure, shortened: as §1
# [12] = tested on: rape; experiment: Test B pre/postemergence rape; format: in vivo, Brassica napus
# Procedure, shortened: as §1
# [13] = tested on: bamyardgrass; experiment: Test B flood test barnyardgrass; format: in vivo, Echinochloa crus-galli
# Procedure, shortened: as §2
# [14] = tested on: velvetleaf; experiment: Test B pre/postemergence velvetleaf; format: in vivo, Abutilon theophrasti
# Procedure, shortened: as §1
# [15] = tested on: giant foxtail; experiment: Test B pre/postemergence giant foxtail; format: in vivo, Setaria faberii
# Procedure, shortened: as §1
# [16] = Postemergence, Rate 62 g/ha, scale 0 to 10, 0 is no effect, 10 is complete control
# [17] = Postemergence, Rate 125 g/ha, scale of 0 to 10 where 0 is no effect and 10 is complete control
# [18] = Postemergence, Rate 250 g/ha, scale of 0 to 10, 0 is no effect, 10 is complete control
# [19] = Postemergence, Rate 500 g/ha, scale of 0 to 10 where 0 is no effect and 10 is complete control
# [20] = Preemergence, Rate 62 g/ha, scale of 0 to 10 where 0 is no effect and 10 is complete control
# [21] = Preemergence, Rate 125 g/ha, scale of 0 to 10 where 0 is no effect and 10 is complete control
# [22] = Preemergence, Rate 250 g/ha, scale 0 to 10 (0 no effect, 10 complete control)
# [23] = Preemergence, Rate 500 g/ha, scale of 0 to 10 where 0 is no effect and 10 is complete control
# [24] = Rate 62 g/ha, flood test species, Pre-emergence, visual evaluation after twelve to sixteen days
# [25] = Rate 125 g/ha, under heading Pre-emergence, flood test species, visual evaluation after twelve to sixteen days
# [26] = Rate 250 g/ha, Pre-emergence (flood test species), scale 0 to 10, 0 is no effect, 10 is complete control
# [27] = Rate 500 g/ha, Pre-emergence section of Table B, 0 to 10 scale (0 no effect, 10 complete control)
structure (smiles),measurement,setting,value
C=C(Cl)Cn1c(=O)on(C(=O)N(c2ccc(F)cc2F)C(C)C)c1=O [Compound 634],"Plant response rating, Blackgrass",[1]; [16],2
same,"Plant response rating, Blackgrass",[1]; [17],6
same,Blackgrass plant response rating,[1]; [18],8
same,"Plant response rating, Blackgrass",[1]; [19],8
same,Blackgrass plant response rating,[1]; [20],4
same,Blackgrass plant response rating,[1]; [21],6
same,"Plant response rating, Blackgrass",[1]; [22],8
same,"Plant response rating, Blackgrass",[1]; [23],9
same,"Plant response rating, Rice (0 to 10 scale, 0 is no effect, 10 is complete control)",[2]; [24],0
same,"Rice plant response rating (0 to 10 scale, 0 is no effect, 10 is complete control)",[2]; [25],0
same,Rice plant response rating,[2]; [26],0
same,Rice plant response rating,[2]; [27],0
same,"Plant response rating, Morningglory",[3]; [16],1
same,"Plant response rating, Morningglory",[3]; [17],1
same,Morningglory plant response rating,[3]; [18],2
same,"Plant response rating, Morningglory",[3]; [19],2
same,Morningglory plant response rating,[3]; [20],0
same,Morningglory plant response rating,[3]; [21],0
same,"Plant response rating, Morningglory",[3]; [22],0
same,"Plant response rating, Morningglory",[3]; [23],0
same,"Plant response rating, Cocklebur",[4]; [16],1
same,"Plant response rating, Cocklebur",[4]; [17],1
same,Cocklebur plant response rating,[4]; [18],2
same,"Plant response rating, Cocklebur",[4]; [19],2
same,Cocklebur plant response rating,[4]; [20],0
same,Cocklebur plant response rating,[4]; [21],0
same,"Plant response rating, Cocklebur",[4]; [22],0
same,"Plant response rating, Cocklebur",[4]; [23],0
same,"Plant response rating, Bedstraw",[5]; [16],0
same,"Plant response rating, Bedstraw",[5]; [17],0
same,Bedstraw plant response rating,[5]; [18],0
same,Bedstraw plant response rating,[5]; [21],0
same,"Plant response rating, Sugarbeets",[6]; [16],0
same,"Plant response rating, Sugarbeets",[6]; [17],0
same,Sugarbeets plant response rating,[6]; [18],0
same,Sugarbeets plant response rating,[6]; [20],0
same,Sugarbeets plant response rating,[6]; [21],0
same,"Plant response rating, Sugarbeets",[6]; [22],5
same,"Plant response rating, Sugarbeets",[6]; [23],6
same,"Plant response rating, Nutsedge",[7]; [16],0
same,"Plant response rating, Nutsedge",[7]; [17],0
same,"Plant response rating, Nutsedge",[7]; [19],0
same,Nutsedge plant response rating,[7]; [20],0
same,Nutsedge plant response rating,[7]; [21],0
same,"Plant response rating, Nutsedge",[7]; [22],0
same,"Plant response rating, Nutsedge",[7]; [23],0
same,"Plant response rating, B. signalgrass",[8]; [16],0
same,"Plant response rating, B. signalgrass",[8]; [17],0
same,B. signalgrass plant response rating,[8]; [18],0
same,"Plant response rating, B. signalgrass",[8]; [19],5
same,B. signalgrass plant response rating,[8]; [20],1
same,B. signalgrass plant response rating,[8]; [21],5
same,"Plant response rating, B. signalgrass",[8]; [22],7
same,"Plant response rating, B. signalgrass",[8]; [23],10
same,"Plant response rating, Ducksalad (0 to 10 scale, 0 is no effect, 10 is complete control)",[9]; [24],0
same,"Ducksalad plant response rating (0 to 10 scale, 0 is no effect, 10 is complete control)",[9]; [25],0
same,Ducksalad plant response rating,[9]; [26],0
same,Ducksalad plant response rating,[9]; [27],0
same,"Plant response rating, Redroot pigweed",[10]; [16],1
same,"Plant response rating, Redroot pigweed",[10]; [17],2
same,Redroot pigweed plant response rating,[10]; [18],2
same,Redroot pigweed plant response rating,[10]; [20],0
same,Redroot pigweed plant response rating,[10]; [21],4
same,"Plant response rating, Redroot pigweed",[10]; [22],10
same,"Plant response rating, Redroot pigweed",[10]; [23],10
same,"Plant response rating, Corn",[11]; [16],0
same,"Plant response rating, Corn",[11]; [17],0
same,Corn plant response rating,[11]; [18],0
same,"Plant response rating, Corn",[11]; [19],0
same,Corn plant response rating,[11]; [20],0
same,Corn plant response rating,[11]; [21],0
same,"Plant response rating, Corn",[11]; [22],0
same,"Plant response rating, Corn",[11]; [23],0
same,"Plant response rating, Rape",[12]; [16],0
same,"Plant response rating, Rape",[12]; [17],0
same,Rape plant response rating,[12]; [18],0
same,"Plant response rating, Rape",[12]; [19],0
same,Rape plant response rating,[12]; [20],0
same,Rape plant response rating,[12]; [21],2
same,"Plant response rating, Rape",[12]; [22],6
same,"Plant response rating, Rape",[12]; [23],7
same,"Plant response rating, Barnyardgrass (0 to 10 scale, 0 is no effect, 10 is complete control)",[13]; [24],0
same,"Barnyardgrass plant response rating (0 to 10 scale, 0 is no effect, 10 is complete control)",[13]; [25],0
same,Barnyardgrass plant response rating,[13]; [26],0
same,Barnyardgrass plant response rating,[13]; [27],0
same,"Plant response rating, Velvetleaf",[14]; [16],0
same,"Plant response rating, Velvetleaf",[14]; [17],0
same,Velvetleaf plant response rating,[14]; [18],3
same,Velvetleaf plant response rating,[14]; [20],0
same,Velvetleaf plant response rating,[14]; [21],0
same,"Plant response rating, Velvetleaf",[14]; [22],4
same,"Plant response rating, Velvetleaf",[14]; [23],6
same,"Plant response rating, Giant foxtail",[15]; [16],4
same,"Plant response rating, Giant foxtail",[15]; [17],8
same,Giant foxtail plant response rating,[15]; [18],9
same,"Plant response rating, Giant foxtail",[15]; [19],9
same,Giant foxtail plant response rating,[15]; [20],9
same,Giant foxtail plant response rating,[15]; [21],10
same,"Plant response rating, Giant foxtail",[15]; [22],10
same,"Plant response rating, Giant foxtail",[15]; [23],10
